The target of experiment [1] is Bone morphogenetic protein receptor type-2 (Homo sapiens) (UniProt Q13873). The experiment can be described thus: Inhibition of BMPR2 (unknown origin) assessed as remaining activity at 1 uM by Kinome scan method relative to control.
The target in experiment [2] is Cyclin-dependent kinase 8 (Homo sapiens) (UniProt P49336). The experiment can be described thus: Inhibition of CDK8 (unknown origin) assessed as remaining activity at 1 uM by Kinome scan method relative to control.
Experiment [3] has as its system Epidermal growth factor receptor (Homo sapiens), P00533 [G719C]. The experiment can be described thus: Inhibition of EGFR G719C mutant (unknown origin) assessed as remaining activity at 1 uM by Kinome scan method relative to control.
The test system of experiment [4] is Epidermal growth factor receptor (Homo sapiens), P00533 [G719S]. Description: Inhibition of EGFR G719S mutant (unknown origin) assessed as remaining activity at 1 uM by Kinome scan method relative to control.
The target of experiment [5] is Ephrin type-A receptor 5 (Homo sapiens) (UniProt P54756). Description: Inhibition of EPHA5 (unknown origin) assessed as remaining activity at 1 uM by Kinome scan method relative to control.
In experiment [6] the target is Serine/threonine-protein kinase 3 (Homo sapiens) (UniProt Q13188). Description: Inhibition of MST2 (unknown origin) assessed as remaining activity at 1 uM by Kinome scan method relative to control.
Experiment [7] has as its target Phosphatidylinositol 4,5-bisphosphate 3-kinase catalytic subunit alpha isoform (Homo sapiens) (UniProt P42336). The experiment can be described thus: Inhibition of PIK3CA (unknown origin) assessed as remaining activity at 1 uM by Kinome scan method relative to control.
Experiment [8] has as its system Phosphatidylinositol 4,5-bisphosphate 3-kinase catalytic subunit alpha isoform (Homo sapiens), P42336 [Q546K]. The experiment can be described thus: Inhibition of PIK3CA Q546K mutant (unknown origin) assessed as remaining activity at 1 uM by Kinome scan method relative to control.
Experiment [9] addresses Serine/threonine-protein kinase D2 (Homo sapiens) (UniProt Q9BZL6). Description: Inhibition of PRKD2 (unknown origin) assessed as remaining activity at 1 uM by Kinome scan method relative to control.
For experiment [10], the target named is Rho-associated protein kinase 2 (Homo sapiens) (UniProt O75116). The experiment can be described thus: Inhibition of ROCK2 (unknown origin) assessed as remaining activity at 1 uM by Kinome scan method relative to control.
Experiment [11] deals with NUAK family SNF1-like kinase 1 (Homo sapiens) (UniProt O60285). Description: Inhibition of human ARK5 assessed as residual activity at 1 uM using RBER-CHKtide as substrate in presence of 33P-ATP by ProQinase assay relative to control.
Experiment [12] addresses Serine/threonine-protein kinase B-raf (Homo sapiens) (UniProt P15056). The experiment can be described thus: Inhibition of human BRAF assessed as residual activity at 1 uM using MEK1-K97M as substrate in presence of 33P-ATP by ProQinase assay relative to control.
Experiment [13] concerns the target Protein-tyrosine kinase 6 (Homo sapiens) (UniProt Q13882). Description: Inhibition of human BRK assessed as residual activity at 1 uM using PolyEY as substrate in presence of 33P-ATP by ProQinase assay relative to control.
Experiment [14] addresses Ephrin type-A receptor 5 (Homo sapiens) (UniProt P54756). Description: Inhibition of human EPHA5 assessed as residual activity at 1 uM using polyEY as substrate in presence of 33P-ATP by ProQinase assay relative to control.
For experiment [15], the target named is G protein-coupled receptor kinase 6 (Homo sapiens) (UniProt P43250). Description: Inhibition of human GRK6 assessed as residual activity at 1 uM using casein as substrate in presence of 33P-ATP by ProQinase assay relative to control.
The test system of experiment [16] is Hepatocyte growth factor receptor (Homo sapiens), P08581 [Y1230C]. Description: Inhibition of human MET Y1230C mutant assessed as residual activity at 1 uM using poly(Ala,Glu,Lys,Tyr)6:2:5:1 as substrate in presence of 33P-ATP by ProQinase assay relative to control.
Experiment [17] addresses Protein-tyrosine kinase 2-beta (Homo sapiens) (UniProt Q14289). Description: Inhibition of human PYK2 assessed as residual activity at 1 uM using polyEY as substrate in presence of 33P-ATP by ProQinase assay relative to control.
Experiment [18] has as its target Serine/threonine-protein kinase TBK1 (Homo sapiens) (UniProt Q9UHD2). Description: Inhibition of human TBK1 assessed as residual activity at 1 uM using casein as substrate in presence of 33P-ATP by ProQinase assay relative to control.
For experiment [19], the target named is T1, TGF-beta receptor type-1 (Homo sapiens) (UniProt P36897).
T1 sequence (whole entry): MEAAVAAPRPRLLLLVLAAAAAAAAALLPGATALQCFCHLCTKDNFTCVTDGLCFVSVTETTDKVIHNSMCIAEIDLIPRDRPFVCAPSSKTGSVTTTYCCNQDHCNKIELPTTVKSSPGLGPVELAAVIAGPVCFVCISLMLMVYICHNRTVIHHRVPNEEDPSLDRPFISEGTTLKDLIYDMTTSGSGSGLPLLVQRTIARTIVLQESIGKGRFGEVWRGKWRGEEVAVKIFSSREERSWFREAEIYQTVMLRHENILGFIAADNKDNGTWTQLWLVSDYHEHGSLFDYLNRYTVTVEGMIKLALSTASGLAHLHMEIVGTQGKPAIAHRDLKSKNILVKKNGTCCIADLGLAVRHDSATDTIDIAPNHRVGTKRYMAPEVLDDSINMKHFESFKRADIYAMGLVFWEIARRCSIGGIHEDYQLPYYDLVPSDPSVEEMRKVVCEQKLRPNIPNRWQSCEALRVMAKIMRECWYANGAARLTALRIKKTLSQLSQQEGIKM
The experiment can be described thus: Inhibition of human TGFBR1 assessed as residual activity at 1 uM using RBER-GSK3(14-27) as substrate in presence of 33P-ATP by ProQinase assay relative to control.

In experiment [20] the target is T2, Tyrosine-protein kinase TXK (Homo sapiens) (UniProt P42681).
T2 sequence (whole entry): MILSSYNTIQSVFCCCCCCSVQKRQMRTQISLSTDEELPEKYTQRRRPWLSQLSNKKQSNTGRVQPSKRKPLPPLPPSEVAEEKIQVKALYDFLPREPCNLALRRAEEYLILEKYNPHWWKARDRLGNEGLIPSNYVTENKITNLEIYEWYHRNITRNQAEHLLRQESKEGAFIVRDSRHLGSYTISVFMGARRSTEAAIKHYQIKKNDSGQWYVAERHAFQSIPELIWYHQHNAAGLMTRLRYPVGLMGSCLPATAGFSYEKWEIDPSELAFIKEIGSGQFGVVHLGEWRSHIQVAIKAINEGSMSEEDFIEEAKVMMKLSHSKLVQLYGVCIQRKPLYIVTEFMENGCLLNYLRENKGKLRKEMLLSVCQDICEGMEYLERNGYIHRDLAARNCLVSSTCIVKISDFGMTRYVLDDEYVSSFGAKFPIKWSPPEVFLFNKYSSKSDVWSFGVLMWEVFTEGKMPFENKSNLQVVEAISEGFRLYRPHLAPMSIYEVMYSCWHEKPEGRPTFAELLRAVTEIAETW
Description: Inhibition of human TXK assessed as residual activity at 1 uM using RBER-CHKtide as substrate in presence of 33P-ATP by ProQinase assay relative to control.

Activity data for one compound are collected here from ChEMBL document CHEMBL5696441 (Nat Chem Biol, 2011).

Sequence of Ephrin type-A receptor 5 (Homo sapiens) (P54756 whole entry): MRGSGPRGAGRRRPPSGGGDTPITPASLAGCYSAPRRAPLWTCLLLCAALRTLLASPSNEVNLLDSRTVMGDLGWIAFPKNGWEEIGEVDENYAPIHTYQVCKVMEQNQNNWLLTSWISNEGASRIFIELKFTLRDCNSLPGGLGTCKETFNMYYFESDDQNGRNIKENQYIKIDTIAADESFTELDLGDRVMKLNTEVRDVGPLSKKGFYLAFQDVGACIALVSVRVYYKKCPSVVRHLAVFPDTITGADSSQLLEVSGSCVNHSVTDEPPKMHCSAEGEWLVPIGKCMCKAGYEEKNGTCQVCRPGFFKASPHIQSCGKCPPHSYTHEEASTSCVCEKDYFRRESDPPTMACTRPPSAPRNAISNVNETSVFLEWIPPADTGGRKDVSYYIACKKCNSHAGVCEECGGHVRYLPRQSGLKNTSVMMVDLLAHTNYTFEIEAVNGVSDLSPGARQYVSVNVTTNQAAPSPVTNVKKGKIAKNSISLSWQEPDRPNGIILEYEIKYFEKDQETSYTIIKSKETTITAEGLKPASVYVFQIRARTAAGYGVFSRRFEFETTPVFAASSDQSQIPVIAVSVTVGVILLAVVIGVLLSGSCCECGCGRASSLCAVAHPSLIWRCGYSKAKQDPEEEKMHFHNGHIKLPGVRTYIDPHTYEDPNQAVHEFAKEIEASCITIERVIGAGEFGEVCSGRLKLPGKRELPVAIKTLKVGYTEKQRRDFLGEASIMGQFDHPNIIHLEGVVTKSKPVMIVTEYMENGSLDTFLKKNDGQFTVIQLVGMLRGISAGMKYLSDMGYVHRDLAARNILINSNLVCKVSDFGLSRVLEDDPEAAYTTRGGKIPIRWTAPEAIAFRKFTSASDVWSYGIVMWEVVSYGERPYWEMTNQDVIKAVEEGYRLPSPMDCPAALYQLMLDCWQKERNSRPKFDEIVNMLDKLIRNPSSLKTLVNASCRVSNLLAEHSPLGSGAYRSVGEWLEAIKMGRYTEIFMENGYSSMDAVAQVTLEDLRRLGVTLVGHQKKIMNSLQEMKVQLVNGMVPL
Sequence of Cyclin-dependent kinase 8 (Homo sapiens) (P49336 whole entry): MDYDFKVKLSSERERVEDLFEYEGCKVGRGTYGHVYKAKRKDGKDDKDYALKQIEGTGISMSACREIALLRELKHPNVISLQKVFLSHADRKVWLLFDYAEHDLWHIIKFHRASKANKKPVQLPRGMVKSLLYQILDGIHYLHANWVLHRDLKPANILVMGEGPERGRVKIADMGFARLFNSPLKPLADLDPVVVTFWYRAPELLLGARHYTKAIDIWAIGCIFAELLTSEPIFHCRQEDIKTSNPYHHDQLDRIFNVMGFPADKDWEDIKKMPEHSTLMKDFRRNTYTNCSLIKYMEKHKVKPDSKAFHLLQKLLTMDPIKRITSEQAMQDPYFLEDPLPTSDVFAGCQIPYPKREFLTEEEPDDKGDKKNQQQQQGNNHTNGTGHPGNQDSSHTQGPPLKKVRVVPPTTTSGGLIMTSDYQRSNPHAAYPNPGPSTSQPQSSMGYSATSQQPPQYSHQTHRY
Sequence of Serine/threonine-protein kinase B-raf (Homo sapiens) (P15056 whole entry): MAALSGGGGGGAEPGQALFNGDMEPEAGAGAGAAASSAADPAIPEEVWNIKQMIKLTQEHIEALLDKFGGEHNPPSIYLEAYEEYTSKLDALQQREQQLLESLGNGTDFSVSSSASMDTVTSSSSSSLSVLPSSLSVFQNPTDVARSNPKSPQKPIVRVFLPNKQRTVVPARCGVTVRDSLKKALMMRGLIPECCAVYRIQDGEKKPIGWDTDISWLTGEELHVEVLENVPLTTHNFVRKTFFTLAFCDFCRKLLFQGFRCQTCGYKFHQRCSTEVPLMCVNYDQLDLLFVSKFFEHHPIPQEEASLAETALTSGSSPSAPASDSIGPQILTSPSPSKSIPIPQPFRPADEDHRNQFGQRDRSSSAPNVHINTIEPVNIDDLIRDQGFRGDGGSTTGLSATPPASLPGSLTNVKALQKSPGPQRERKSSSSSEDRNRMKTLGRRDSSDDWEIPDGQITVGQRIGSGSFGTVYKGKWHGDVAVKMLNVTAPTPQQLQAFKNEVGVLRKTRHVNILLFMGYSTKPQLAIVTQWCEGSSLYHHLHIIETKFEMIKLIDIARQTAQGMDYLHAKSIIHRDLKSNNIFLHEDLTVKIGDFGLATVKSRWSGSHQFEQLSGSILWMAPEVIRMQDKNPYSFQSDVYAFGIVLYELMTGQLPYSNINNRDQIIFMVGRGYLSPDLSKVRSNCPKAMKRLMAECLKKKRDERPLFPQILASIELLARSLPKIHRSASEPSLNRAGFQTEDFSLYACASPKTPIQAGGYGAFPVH
Sequence of Serine/threonine-protein kinase D2 (Homo sapiens) (Q9BZL6 whole entry): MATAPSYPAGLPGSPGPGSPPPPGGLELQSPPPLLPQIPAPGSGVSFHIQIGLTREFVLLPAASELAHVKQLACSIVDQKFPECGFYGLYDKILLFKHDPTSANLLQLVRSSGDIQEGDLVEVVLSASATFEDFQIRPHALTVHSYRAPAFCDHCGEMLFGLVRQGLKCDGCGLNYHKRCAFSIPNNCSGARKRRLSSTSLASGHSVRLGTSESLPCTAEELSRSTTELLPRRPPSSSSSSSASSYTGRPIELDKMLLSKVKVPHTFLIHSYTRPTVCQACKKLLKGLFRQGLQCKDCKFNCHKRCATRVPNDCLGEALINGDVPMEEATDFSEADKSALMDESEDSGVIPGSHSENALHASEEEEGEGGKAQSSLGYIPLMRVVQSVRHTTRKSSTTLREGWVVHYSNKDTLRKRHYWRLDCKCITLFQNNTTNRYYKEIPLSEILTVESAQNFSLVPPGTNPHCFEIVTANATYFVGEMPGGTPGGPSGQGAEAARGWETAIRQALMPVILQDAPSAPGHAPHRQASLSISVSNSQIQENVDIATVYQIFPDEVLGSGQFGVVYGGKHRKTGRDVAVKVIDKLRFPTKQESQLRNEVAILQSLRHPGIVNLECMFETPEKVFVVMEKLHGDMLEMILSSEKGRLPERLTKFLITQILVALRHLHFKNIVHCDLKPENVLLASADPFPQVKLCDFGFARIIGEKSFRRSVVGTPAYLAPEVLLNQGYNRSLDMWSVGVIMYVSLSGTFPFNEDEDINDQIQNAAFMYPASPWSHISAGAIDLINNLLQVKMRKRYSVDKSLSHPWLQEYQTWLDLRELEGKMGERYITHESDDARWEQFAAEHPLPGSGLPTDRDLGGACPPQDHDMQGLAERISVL
Sequence of NUAK family SNF1-like kinase 1 (Homo sapiens) (O60285 whole entry): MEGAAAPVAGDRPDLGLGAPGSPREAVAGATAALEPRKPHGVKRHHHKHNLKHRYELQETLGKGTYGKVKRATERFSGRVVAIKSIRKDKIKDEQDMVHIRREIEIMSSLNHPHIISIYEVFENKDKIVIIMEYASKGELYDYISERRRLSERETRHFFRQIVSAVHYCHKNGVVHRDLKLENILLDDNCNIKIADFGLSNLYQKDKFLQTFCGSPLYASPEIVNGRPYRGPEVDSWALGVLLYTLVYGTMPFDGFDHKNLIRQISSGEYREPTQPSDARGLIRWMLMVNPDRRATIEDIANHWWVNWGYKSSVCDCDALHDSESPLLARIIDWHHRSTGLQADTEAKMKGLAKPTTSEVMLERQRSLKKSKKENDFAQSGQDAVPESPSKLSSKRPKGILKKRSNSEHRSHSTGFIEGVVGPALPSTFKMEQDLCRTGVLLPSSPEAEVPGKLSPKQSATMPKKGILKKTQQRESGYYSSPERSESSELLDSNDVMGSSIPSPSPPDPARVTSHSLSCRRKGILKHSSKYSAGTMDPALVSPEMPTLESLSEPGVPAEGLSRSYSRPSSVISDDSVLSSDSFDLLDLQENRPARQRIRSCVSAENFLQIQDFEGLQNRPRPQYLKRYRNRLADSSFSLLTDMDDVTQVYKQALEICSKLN
Sequence of Phosphatidylinositol 4,5-bisphosphate 3-kinase catalytic subunit alpha isoform (Homo sapiens) (P42336 whole entry, canonical isoform): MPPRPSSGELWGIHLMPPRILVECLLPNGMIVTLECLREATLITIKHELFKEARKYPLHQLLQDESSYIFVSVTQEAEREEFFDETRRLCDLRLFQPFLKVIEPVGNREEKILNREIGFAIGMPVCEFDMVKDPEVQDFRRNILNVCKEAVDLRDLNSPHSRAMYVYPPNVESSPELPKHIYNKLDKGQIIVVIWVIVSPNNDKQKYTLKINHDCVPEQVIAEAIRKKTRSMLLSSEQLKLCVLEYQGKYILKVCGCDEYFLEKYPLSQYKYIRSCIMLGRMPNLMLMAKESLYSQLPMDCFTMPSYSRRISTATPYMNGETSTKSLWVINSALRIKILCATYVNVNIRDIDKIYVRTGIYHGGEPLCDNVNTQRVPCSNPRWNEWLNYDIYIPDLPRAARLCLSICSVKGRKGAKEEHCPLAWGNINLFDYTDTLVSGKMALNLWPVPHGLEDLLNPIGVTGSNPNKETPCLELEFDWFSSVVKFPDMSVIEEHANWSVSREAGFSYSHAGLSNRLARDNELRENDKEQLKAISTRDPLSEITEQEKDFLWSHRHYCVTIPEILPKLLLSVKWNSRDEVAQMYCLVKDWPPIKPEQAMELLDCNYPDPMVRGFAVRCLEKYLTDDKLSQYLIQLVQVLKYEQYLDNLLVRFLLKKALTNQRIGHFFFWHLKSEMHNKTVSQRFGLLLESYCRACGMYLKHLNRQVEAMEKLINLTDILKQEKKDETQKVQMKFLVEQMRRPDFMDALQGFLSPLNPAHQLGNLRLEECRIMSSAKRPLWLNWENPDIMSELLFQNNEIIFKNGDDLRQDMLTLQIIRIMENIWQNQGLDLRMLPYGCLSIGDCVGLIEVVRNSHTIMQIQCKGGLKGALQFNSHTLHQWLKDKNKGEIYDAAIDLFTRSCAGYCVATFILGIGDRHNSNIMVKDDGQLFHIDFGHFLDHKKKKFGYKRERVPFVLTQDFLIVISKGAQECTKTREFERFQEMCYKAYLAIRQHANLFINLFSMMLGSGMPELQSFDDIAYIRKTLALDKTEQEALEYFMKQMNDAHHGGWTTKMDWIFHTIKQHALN
Sequence of Phosphatidylinositol 4,5-bisphosphate 3-kinase catalytic subunit alpha isoform (Homo sapiens), P42336 [Q546K] (P42336 whole entry Q546K, canonical isoform): as the sequence (P42336 whole entry, canonical isoform) above, with Q546K counted along it

With `O=C1c2ccc(Nc3ccc(F)cc3F)cc2CCc2ccc(OC[C@H](O)CO)cc21` [Skepinone-L], the Activity is 100% in [1]; 100% in [2]; 81% in experiment [3]; 94% in [4]; 98% in experiment [5]; 100% in experiment [6]. Besides, the Activity came to 100% in experiment [7]; 100% in experiment [8]; 100% in experiment [9]; 100% in experiment [10]; 115% in [11]; 112% in [12]. For the same compound, the Activity in experiment [13] was 84%; in experiment [14] it was 132%; in experiment [15], 82%; in experiment [16] it was 97%; in [17], 102%; in [18] it was 87%. Also, the Activity in experiment [19] and in experiment [20] was 93% in each case.
